Reference: US6444698B1, “Application of 2,3,7,8-tetrachlorodibenzo-para-dioxin (TCDD) as a promoter blocker of cancer” (priority 1998, dated 2002)
“And” between values parts separate entries of the source, which are not always exact repeats. Equal entries are not always repeated. “Also recorded” adds a separate entry of the source. Where two headings read alike, the source gives them in different places.

Assays:
Sprague-Dawley rats [1] = assay: Kociba lifetime rodent feeding study; format: in vivo, rat
Description: EPA has sought to regulate dioxin as a carcinogen on three occassions. […] Kociba et al., Toxicol. Appl. Pharmacol. 46, 279-303 (1978). […] Kociba et al. (1978); U.S. EPA (1985); and U.S. EPA (1994).
Kociba et al, (1978); U.S. EPA (1985 and 1994).
To develop the Invention further, cross species comparisons are performed when no second epidemiology report is available to test the effect of TCDD exposure on women. […] Kayajanian, Regul. Toxicol. Pharmacol. 26, 134-137 (1997).

[2] = tested on: residential population of men and women; assay: Seveso Study, cancer incidence in residential population exposed to TCDD; format: in vivo, human
From the text: (§1) In addition to published and unpublished epidemiology data from the NIOSH Report (Fingerhut et al. (1990)), additional NIOSH Life Table records (LT20406 (1990)), and the Steenland et al. article (1999), the Inventor relies on Bertazzi et al.'s (Epidemiol. 4, 398-406 (1993)) cancer incidence data presentation on a residential population of men and women exposed to the lowest levels of TCDD as a result of a chemical plant explosion near Seveso, Italy, and the Inventor's own analysis of cancer incidence and body burden data in the Operation Ranch Hand (ORH) airmen exposed to TCDD as a result of service in Southeast Asia during the Vietnam War. None of the NIOSH and Seveso papers cited above claim that TCDD acts as an anti-carcinogen. The Air Force Scientists charged with developing the ORH Study also fail to observe TCDD as an anti-carcinogen. Ketchum et al. Amer. J. Epidem. 149, 630-639 (1999).
(§2) The Seveso Study (Bertazzi et al. (1993)) is a report on cancer incidence and cancer incidence changes in the first ten years following the population's exposure to TCDD and other chemicals. Over the course of these ten years, one expects not to register the carcinogenic effects of any chemicals acting as cancer initiators and to include any effects attributable to TCDD discernible within ten years, like promotion or promotion blocking. The first ten years of the lifetime NIOSH Study offer the same advantage. Fingerhut et al. (1990).
For a limited number of narrow cancer classifications, Bertazzi et al. (1993) has provided cancer incidence data stratified in five year intervals both for publication and as a courtesy to the Inventor. Kayajanian, Ecotox. Environ. Safety 42, 103-109 (1999). Fingerhut et al. (1990) also published five year cancer occurrence observations for total cancers. […] This pattern of cancer incidence reduction in the second five year interval is what one would expect if TCDD acted as a promoter blocker of the enumerated individual cancer classifications and a sufficient number of other cancers to generate a significant total cancer incidence reduction.
The significant individual and total cancer reductions the Inventor noted from the Seveso data, whether stratified or not (Bertazzi et al. (1993)) are associated with median levels of 48 ppt TCDD. Bertazzi et al., Amer. J. Epidem. 153, 1031-1043 (2001). Measurement of TCDD levels include both men and women.

[3] = tested on: male workers in 12 chemical plants; assay: NIOSH Study of chemical plant workers, cancer occurrence; format: in vivo, human
From the text: In 1994, EPA sought to regulate TCDD as a “probable” human carcinogen, using a population of 5280 male workers in 12 chemical plants, each of whom was exposed to contaminant levels of TCDD and some mix of 1000 unidentified other chemicals. Fingerhut et al. (1990). Fingerhut compared the cancer incidence in the plant workers to that expected in a national reference, and EPA concluded all the cancer incidence increases noted by Fingerhut were caused by the TCDD exposure and none were caused by exposures to other chemicals. U.S. EPA (1994). EPA's Science Advisory Board rejected the Agency's TCDD cancer claims. U.S. EPA Science Advisory Board, Review of Draft Documents: A Second Look at Dioxin (1995).
as §2
One of the plants (Midland) in the NIOSH Report has workers who reproduce the signature of individual cancer reductions and increases the Inventor observed in Seveso low exposure men: reductions in lung, primary liver (measured in Midland as liver) and multiple myeloma, which collectively are significant; and increases in STS and NHL, which individually are significant. The Seveso signature pattern of cancer incidence changes is present even though workers in Midland and the other 11 chemical plants were exposed to confounding chemicals which might have masked or diminished the extent of pattern confirmation. LT20406 (1990). From Steenland et al. (1999), one can estimate the TCDD level associated with the Midland plant wotkers as 105 ppt above background, or between 105 and 115 ppt.
The specific and total cancer reductions noted in the NIOSH, Seveso, and ORH studies can be tied to specific dioxin body burden levels measured in serum. Reading Steenland et al. (1999) and Fingerhut et al. (1990) together, one can estimate a range from 3 to 10,000 ppt extra TCDD in serum in eight of the 12 NIOSH plante worker cohorts. […] Midland workers, who show the Seveso pattern of reductions of specific cancers, had 105 ppt TCDD above background, which is assumed to be 0 to 10 ppt.

[4] = tested on: Operation Ranch Hand (ORH) airmen; assay: Operation Ranch Hand (ORH) cancer incidence and body burden analysis; format: in vivo, human
From the text: as §1
The ORH cancer incidence data collected over 30 years has particular value, because one may compute the cancer incidence effects associated with military service in Southeast Asia in internal cohorts unexposed or virtually unexposed to TCDD and distinguish them from an internal cohort of airmen exposed to TCDD within a well calibrated body burden range.
Kayajanian, Ecotox. Environ. Safety 46, 103-109 (2000); and Kayajanian, Ecotox. Environ. Safety (In press, 2001).
Kayajanian (2000)(In press, 2001). One standout cancer reduction is associated with an even lower TCDD body burden level: prostate cancer in black veterans is highest at non detect TCDD levels of less than 1.25 ppt; it is reduced at body burdens between 1.25 and 4.0 ppt, and lowest above 4.00 ppt, The pattern of prostate cancer reduction in black men is significant. Kayajanian, (In press, 2001).

Sprague-Dawley rats [5] = conditions: cited from earlier work
mouse skin = conditions: cited from earlier work
[6] = tested on: residential population of men and women; conditions: cited from earlier work
[7] = tested on: male workers in 12 chemical plants; conditions: most highly TCDD-exposed members of the NIOSH workforce (Steenland 1999); cited from earlier work
[8] = tested on: Operation Ranch Hand (ORH) airmen; conditions: cited from earlier work
[9] = tritiated TCDD ingested in corn oil, volunteer; cited from earlier work
[10] = target: T1, aryl hydrocarbon (Ah) receptor (Homo sapiens, UniProt P35869); conditions: cited from earlier work
T1 sequence (P35869 11-848): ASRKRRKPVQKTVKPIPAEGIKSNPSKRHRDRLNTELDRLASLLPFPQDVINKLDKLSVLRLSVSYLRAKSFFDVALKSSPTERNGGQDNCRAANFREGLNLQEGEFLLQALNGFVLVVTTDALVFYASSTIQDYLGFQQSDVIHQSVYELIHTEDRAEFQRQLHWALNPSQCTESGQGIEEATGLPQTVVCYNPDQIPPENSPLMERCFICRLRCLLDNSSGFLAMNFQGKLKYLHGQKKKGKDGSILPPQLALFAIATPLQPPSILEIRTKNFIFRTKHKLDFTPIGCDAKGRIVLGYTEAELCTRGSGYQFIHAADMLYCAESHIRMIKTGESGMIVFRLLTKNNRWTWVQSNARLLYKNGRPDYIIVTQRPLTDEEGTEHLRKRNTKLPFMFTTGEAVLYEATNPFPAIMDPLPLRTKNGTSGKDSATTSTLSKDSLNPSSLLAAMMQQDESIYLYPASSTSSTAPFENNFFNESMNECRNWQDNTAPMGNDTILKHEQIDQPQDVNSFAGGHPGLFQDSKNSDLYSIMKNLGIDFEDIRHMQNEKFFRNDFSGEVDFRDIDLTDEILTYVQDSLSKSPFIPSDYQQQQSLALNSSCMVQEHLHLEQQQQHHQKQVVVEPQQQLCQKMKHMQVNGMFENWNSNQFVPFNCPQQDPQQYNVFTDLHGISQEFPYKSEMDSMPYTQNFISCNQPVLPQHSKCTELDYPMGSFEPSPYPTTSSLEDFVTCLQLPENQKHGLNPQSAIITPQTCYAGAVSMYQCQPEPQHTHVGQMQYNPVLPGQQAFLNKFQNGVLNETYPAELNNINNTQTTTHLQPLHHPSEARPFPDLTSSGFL

industrial cohorts = conditions: cited from earlier work
[11] = low exposure cohorts, second five years compared to first five years

Clc1cc2c(cc1Cl)Oc1cc(Cl)c(Cl)cc1O2 [TCDD, 2,3,7,8-tetrachlorodibenzo-para-dioxin]
total cancers (Sprague-Dawley rats [1]; each sex, low and mid dose TCDD levels of 540 and 5100 ppt in liver tissue): significant reduction
total cancers (Sprague-Dawley rats [1]; low dose female rats, p<0.01): significantly reduced
uterine cancers (Sprague-Dawley rats [1]; low dose female rats, p<0.06): significantly reduced
liver cancer incidence (Sprague-Dawley rats [1]; low dose, each sex, significant in the males): reduction
percentagewise cancer incidence reduction, male versus female rats (Sprague-Dawley rats [1]; lowest study exposure): in male rats to a greater extent than in female rats
cancers at multiple tissue sites and overall (Sprague-Dawley rats [1]; male and female rats, TCDD body burdens of 540 and 5100 ppt): reduction
lung and multiple myeloma cancer incidence in men ([2]; compared to the outside reference over the entire ten year period): significantly or notably reduced
incidence of soft tissue sarcoma (STS) and non Hodgkins lymphoma (NHL) ([2]; low exposure adults (men plus women), second five years compared to first five years): significantly increased
corpus uteri cancer incidence in women [2, 11]: significant cancer incidence reduction
primary liver cancer incidence in men [2, 11]: significant cancer incidence reduction
total cancer incidence in women [2, 11]: significant cancer incidence reduction
percentagewise cancer incidence reduction, men versus women ([2]; lowest study exposure): to a greater extent in men than in women
lung, primary liver (measured as liver) and multiple myeloma cancers ([3]; Midland plant workers, collectively significant): reductions
STS and NHL ([3]; Midland plant workers, individually significant): increases
TCDD level associated with the Midland plant workers ([3]; including background): 105-115 ppt
incidence of total cancers in men ([3]; years 6-10 compared to years 1-5, Fingerhut Report): significantly less
total cancers other than skin ([4]; all airmen, 50 ppt (mean body burden 50-100 ppt)): significant cancer incidence reductions; also recorded: significant non skin cancer reductions
prostate cancer in black veterans ([4]; body burdens above 4.00 ppt): lowest
prostate cancer in black veterans ([4]; body burdens between 1.25 and 4.0 ppt): reduced
skin cancer incidence ([4]; non black airmen, 100 ppt (mean body burden 50-100 ppt)): significant cancer incidence reductions; also recorded: significant skin cancer reductions
prostate cancer in black veterans ([4]; non detect TCDD levels of less than 1.25 ppt): highest
mean TCDD body burden levels at which significant cancer incidence reductions are observed ([4]; skin and total cancers other than skin): 50-100 ppt
hepatocarcinogenicity (Sprague-Dawley rats [5]; body burden level 25,400 ppt (Safe citing Kociba)): very hepatocarcinogenic
liver cancer incidence (Sprague-Dawley rats [5]; high dose female Sprague-Dawley rats fed TCDD over a lifetime): significantly elevated
mammary and uterine cancers (Sprague-Dawley rats [5]; high dose female, body burden level 25,400 ppt (Safe citing Kociba)): anti-carcinogenic
artificially elevated skin cancer incidence (mouse skin; TCDD administered simultaneously with or a day after the skin cancer initiation step): No reduction
artificially elevated skin cancer incidence (mouse skin; very high single dose administered one to five days prior to initiation, several mice strains): significantly reduces
total cancers ([6]; Italian men from Seveso, pooled two highest exposed cohorts, over twenty years (Bertazzi 2001)): significant increase
median TCDD level associated with significant individual and total cancer reductions ([6]; men and women): 48 ppt and 48.0 ppt
total cancers [7]: significant increase
mean TCDD level of airmen when they left Vietnam [8]: 195.7 ppt
label retention [9]: 87%
binding to the aryl hydrocarbon (Ah) receptor [10]: preferentially binds
total cancer mortality (industrial cohorts; most highly TCDD-exposed German herbicide chemical plant workers (Flesch-Janys 1995)): significant increase
total cancers (industrial cohorts; separate studies of different industrial cohorts (Zober 1990, Manz 1991)): total cancer increase
